Measured values from patent publication USRE30241E, “Esters of 3-(hydroxy or hydroxymethyl)-4-hydroxyphenyl aminomethyl ketones” (Sterling Drug Inc., priority 1970, dated 1980).
Structures can show the parent of a compound that is named as a salt. Where two headings read alike, the source gives them in different places.

Test system: carbachol- or histamine-induced bronchoconstriction
Assay: Bronchodilator Test Method I, anesthetized dog, intravenous activity
Assay type: in vivo
Conditions: Canis lupus familiaris, read-out: Bronchodilatation; for inhibition in vivo at 0.294 mg/kg: 294 mcg/kg i.v.; for inhibition in vivo at 1.176 mg/kg: 1176 mcg/kg i.v.; for inhibition in vivo at 0.147 mg/kg: 147 mcg/kg i.v.; for inhibition in vivo at 0.152 mg/kg: 152 mcg/kg i.v.; for inhibition in vivo at 0.304 mg/kg: 304 mcg/kg i.v.; for inhibition in vivo at 0.02 mg/kg: 20 mcg/kg i.v.; for inhibition in vivo at 0.1 mg/kg: 100 mcg/kg i.v.; for inhibition in vivo at 0.005 mg/kg: 5 mcg/kg i.v.; for inhibition in vivo at 0.095 mg/kg: 95 mcg/kg i.v.; for inhibition in vivo at 0.19 mg/kg: 190 mcg/kg i.v.; for inhibition in vivo at 0.38 mg/kg: 380 mcg/kg i.v.; for inhibition in vivo at 0.075 mg/kg: 75 mcg/kg i.v.; for inhibition in vivo at […]: 150 mcg/kg i.v.; for inhibition in vivo at 0.3 mg/kg: 300 mcg/kg i.v.; for inhibition in vivo at 0.014 mg/kg: 14 mcg/kg i.v.; for inhibition in vivo at 0.056 mg/kg: 56 mcg/kg i.v.
Experimental: Bronchodilator activity was tested in anesthetized dogs (Test Method I) and in vitro on the perfused guinea pig lung (Test Method II), using the following pharmacological test procedures
Male and female dogs weighing 9-18 kg. each were anesthetized with pentobarbital sodium (30 mg./kg. i.v.). Each animal, with thorax opened at the midsternum, was maintained under artificial ventilation using a constant volume pump (250 ml./stroke; 10 to 12 strokes per minute) attached to the tracheal cannula. The flow of air was controlled by a glass or plastic valve which closed and opened respectively on inflow and outflow of the air to and from the tracheal cannula. Bronchoconstriction and/or bronchodilatation were measured from changes in the basal airway pressure reflected by a transducer attached to the sidearm of the cannula relayed to a polygraph.
Control bronchoconstrictions were induced by intravenous injections of carbachol (choline chloride carbamate) in doses ranging from 4 to 6 micrograms per kilogram or histamine diphosphate in doses ranging from 35 to 45 micrograms per kilogram.
Solutions of the test compounds were prepared in distilled water or in saline (for infusion). […] These solutions were then tested for bronchodilator activity in three ways, viz. (1) by mixing a graded dose of test compound with the constant does of carbachol or histamine in a syringe and injecting the mixture into the femoral vein of the dog, (2) by producing the bronchoconstriction first and injecting the test compound at the time of maximum constriction, and (3) by injecting the test compound first followed by carbachol or histamine in 1-10 minutes. Injections were repeated at 20-30 minutes. Bronchodilator values were obtained by measuring the areas under the response polygraph tracings (the first 5 munite period) of carbachol or histamine controls and of the experimentals using a planimeter. Decrease in the area thus measured was expressed as a percent bronchodilatation in reference to the area of control carbachol or histamine constriction. The mean bronchodilatations (the reductions in constrictions) were plotted against the doses administered and the mean effective dose (ED50) was estimated in micrograms/kilogram from the does-response curves. Blood pressure recording was taken from the femoral artery using an arterial transducer relayed to a polygraph.

CNCC(O)c1ccc(OC(=O)c2ccc(C)cc2)c(OC(=O)c2ccc(C)cc2)c1 (stereo not drawn) [Example 126, 3,4-bis(p-toluyloxy)-alpha-(methylaminomethyl)benzyl alcohol methanesulfonate]
inhibition in vivo at 0.294 mg/kg (1 min, 1-2 min): 13% | inhibition in vivo at 1.176 mg/kg (1 min, 1-2 min): 100% | inhibition in vivo at 0.147 mg/kg (0.5 h, 30 min): 27% | inhibition in vivo at 0.294 mg/kg (0.5 h, 30 min): 8% | inhibition in vivo at 1.176 mg/kg (0.5 h, 30 min): 47% | inhibition in vivo at 0.147 mg/kg (1 h, 60 min): 15% | inhibition in vivo at 0.294 mg/kg (1 h, 60 min): 17% | inhibition in vivo at 1.176 mg/kg (1 h, 60 min): 20%

CCC(NC(C)C)C(O)c1ccc(OC(=O)c2ccc(C)cc2)c(OC(=O)c2ccc(C)cc2)c1 (stereo not drawn) [Example 132, 3,4-bis(p-toluyloxy)-alpha-[1-(isopropylamino)propyl]benzyl alcohol hydrochloride]
inhibition in vivo at 0.152 mg/kg (5 min, 5 min): 67% | inhibition in vivo at 0.304 mg/kg (5 min, 5 min): 100% | inhibition in vivo at 0.152 mg/kg (0.5 h, 30 min): 75% | inhibition in vivo at 0.304 mg/kg (0.5 h, 30 min): 67% | inhibition in vivo at 0.152 mg/kg (1 h, 60 min): 71% | inhibition in vivo at 0.152 mg/kg (2 h, 120 min): 52% | inhibition in vivo at 0.152 mg/kg (3 h, 180 min): 43% | inhibition in vivo at 0.152 mg/kg (4 h, 240 min): 0% | inhibition in vivo at 0.152 mg/kg (5 h, 300 min): 0% | inhibition in vivo at 0.304 mg/kg (5 h, 300 min): 0%

CC(C)CC(=O)OCc1cc(C(O)CNC(C)(C)C)ccc1OC(=O)CC(C)C (stereo not drawn) [Example 136, 3-(isovaleryloxymethyl)-4-(isovaleryloxy)-alpha-(tert-butylaminomethyl)benzyl alcohol methanesulfonate]
inhibition in vivo at 0.02 mg/kg (5 min, 5 min): 36% | inhibition in vivo at 0.1 mg/kg (5 min, 5 min): 82% | inhibition in vivo at 0.02 mg/kg (0.5 h, 30 min): 53% | inhibition in vivo at 0.1 mg/kg (0.5 h, 30 min): 80% | inhibition in vivo at 0.005 mg/kg (1 h, 60 min): 47% | inhibition in vivo at 0.02 mg/kg (1 h, 60 min): 57% | inhibition in vivo at 0.1 mg/kg (1 h, 60 min): 70% | inhibition in vivo at 0.02 mg/kg (2 h, 120 min): 40% | inhibition in vivo at 0.1 mg/kg (2 h, 120 min): 60% | inhibition in vivo at 0.005 mg/kg (3 h, 180 min): 53% | inhibition in vivo at 0.02 mg/kg (3 h, 180 min): 12% | inhibition in vivo at 0.1 mg/kg (3 h, 180 min): 42% | inhibition in vivo at 0.005 mg/kg (4 h, 240 min): 46% | inhibition in vivo at 0.02 mg/kg (4 h, 240 min): 7% | inhibition in vivo at 0.005 mg/kg (5 h, 300 min): 46% | inhibition in vivo at 0.02 mg/kg (5 h, 300 min): 12% | inhibition in vivo at 0.1 mg/kg (5 h, 300 min): 32%

Cc1ccccc1C(=O)Oc1ccc(C(O)CNC(C)(C)C)cc1OC(=O)c1ccccc1C (stereo not drawn) [Example 111, 3,4-bis(o-toluyloxy)-alpha-(tert-butylaminomethyl)benzyl alcohol methanesulfonate]
inhibition in vivo at 0.0095 mg/kg (1 min, 9.5 mcg/kg i.v., 1-2 min): 0% | inhibition in vivo at 0.095 mg/kg (1 min, 1-2 min): 34% | inhibition in vivo at 0.19 mg/kg (1 min, 1-2 min): 27% | inhibition in vivo at 0.38 mg/kg (1 min, 1-2 min): 33% | inhibition in vivo at 0.095 mg/kg (0.5 h, 30 min): 36% | inhibition in vivo at 0.38 mg/kg (0.5 h, 30 min): 53% | inhibition in vivo at 0.19 mg/kg (1 h, 60 min): 18% | inhibition in vivo at 0.0475 mg/kg (2 h, 47.5 mcg/kg i.v., 120 min): 0% | inhibition in vivo at 0.095 mg/kg (2 h, 120 min): 32% | inhibition in vivo at 0.19 mg/kg (2 h, 120 min): 31% | inhibition in vivo at 0.38 mg/kg (2 h, 120 min): 55% | inhibition in vivo at 0.095 mg/kg (3 h, 180 min): 48% | inhibition in vivo at 0.19 mg/kg (3 h, 180 min): 35% | inhibition in vivo at 0.38 mg/kg (3 h, 180 min): 38% | inhibition in vivo at 0.095 mg/kg (4 h, 240 min): 41% | inhibition in vivo at 0.19 mg/kg (4 h, 240 min): 41% | inhibition in vivo at 0.095 mg/kg (5 h, 300 min): 50% | inhibition in vivo at 0.19 mg/kg (5 h, 300 min): 25%

CC(=O)OC(CNC(C)(C)C)c1ccc(OC(=O)c2ccc(C)cc2)c(OC(=O)c2ccc(C)cc2)c1 (stereo not drawn) [Example 134, 3,4-bis(p-toluyloxy)-alpha-(tert-butylaminomethyl)benzyl acetate]
inhibition in vivo at 0.075 mg/kg (5 min, 5 min): 25% | inhibition in vivo at […] (5 min, 5 min): 54% | inhibition in vivo at 0.3 mg/kg (5 min, 5 min): 47% | inhibition in vivo at 0.075 mg/kg (0.5 h, 30 min): 21% | inhibition in vivo at […] (0.5 h, 30 min): 58% | inhibition in vivo at 0.075 mg/kg (1 h, 60 min): 5% | inhibition in vivo at […] (1 h, 60 min): 52% | inhibition in vivo at 0.075 mg/kg (2 h, 120 min): 0% | inhibition in vivo at […] (2 h, 120 min): 35% | inhibition in vivo at 0.075 mg/kg (3 h, 180 min): 0% | inhibition in vivo at […] (3 h, 180 min): 20% | inhibition in vivo at […] (4 h, 240 min): 0% | inhibition in vivo at 0.3 mg/kg (4 h, 240 min): 36%

COc1ccc(CC(=O)Oc2ccc(C(O)CNC(C)(C)C)cc2OC(=O)Cc2ccc(OC)cc2)cc1 (stereo not drawn) [Example 118, 3,4-bis(p-methoxyphenylacetoxy)-alpha-(tert-butylaminomethyl)benzyl alcohol hydrochloride]
inhibition in vivo at 0.014 mg/kg (5 min, 5 min): 68% | inhibition in vivo at 0.056 mg/kg (5 min, 5 min): 100% | inhibition in vivo at 0.014 mg/kg (0.5 h, 30 min): 61% | inhibition in vivo at 0.056 mg/kg (0.5 h, 30 min): 60% | inhibition in vivo at 0.014 mg/kg (1 h, 60 min): 35% | inhibition in vivo at 0.056 mg/kg (1 h, 60 min): 45% | inhibition in vivo at 0.014 mg/kg (2 h, 120 min): 7% | inhibition in vivo at 0.056 mg/kg (2 h, 120 min): 12%
